In patent publication US12310938B2, “Compositions and methods for weight loss maintenance” (priority 2017, dated 2025):
“Also recorded” adds a separate entry of the source.

Tests used:
[1] = Study 1: chronic ad libitum feeding trial, 28 days; assay type: in vivo; settings: VM/Dk mice, 10-20% by weight in standard chow; for bodyweight (weight loss and its maintenance): males and females, compared to SD or KD chow ad libitum
Description: FIGS. 1A-1H depict results of a chronic ad libitum feeding trial of male and female mice (Standard Diet Male (n=7)=SD-M; Ketogenic Diet Male (n=7)=KD-M; R/S 1,3 Butanediol Acetoacetate Diester (n=4)=KE-M; Standard Diet Female (n=7)=SD-F; Ketogenic Diet Female (n=6)=KD-F; R/S 1,3 Butanediol Acetoacetate Diester Female (n=4)=KE-F).
R,S 1,3-butanediol diacetoacetate (KE; 10-20% by weight mixed into standard chow) was administered to VM/Dk mice at for both males and females for 28 days. Standard rodent chow (SD) and ketogenic diet chow (KD) were administered to other VM/Dk mice ad libitum for comparison.

[2] = Study 3: acute oral gavage trial, 7 days; assay type: in vivo, Sprague Dawley Rats; settings: rats
Description: FIGS. 2A-2B depict results of an acute gavage trial in rats.
R,S 1,3 butanediol diacetoacetate (KE) was administered to Sprague Dawley Rats by oral gavage (at 5 mL/kg, which may translate to about 300-700 mg/kg for a human). Water, BHB-salt, or BHB-salt+MCT mixture was administered to other Sprague Dawley Rats for comparison. Animals were provided ad libitum access to standard rodent chow.

[3] = Study 4: chronic feeding trial, 15 weeks; assay type: in vivo, Sprague Dawley Rats; settings: rats; for bodyweight (prevention of weight gain, maintaining a lower weight): in food, 25 g/kg/d, 15 weeks, compared to standard diet, BHB-S, S-MCT
Excerpt: FIG. 3 depicts results of a chronic feeding trial in rats. SD: standard rodent chow (fed ad libitum); LKE: low-dose R,S 1,3-butanediol diacetoacetate (approx. 5 g/kg/day in food); HKE: high-dose R,S 1,3-butanediol diacetoacetate (approx. 25 g/kg/day in food); BHB-S: beta-hydroxybutyrate salt (approx. 25 g/kg/day in food); S-MCT: 1:1 beta-hydroxybutyrate salt: medium chain triglyceride oil (approx. 25 g/kg/day).

[4] = Study 5: weight loss to 20% with ketogenic agents vs caloric restriction, then return to ad libitum standard diet (weight loss maintenance); assay type: in vivo; settings: C57BL/6J; for food efficiency during weight loss maintenance (bodyweight regain proportional to calories consumed, FIG. 6): after cessation of agent, ad libitum SD, compared to caloric restriction and butanediol; for weight loss as ratio to kcal of ketogenic agent per total daily intake (FIGS. 4A-4B): compared to butanediol, BHB+MCT, BHB; for weight loss as a ratio to caloric intake/day (FIG. 5B): compared to BHB, BHB+MCT and CR groups
Excerpt: FIGS. 4A-4B depict results of weight loss induced by various ketogenic agents against regular SD caloric restriction, illustrating the effectiveness of various ketogenic agents for inducing weight loss. Treatments: Beta-Hydroxybutyrate (BHB); Beta-Hydroxybutyrate+Medium Chain Triglycerides (BHB+MCT); Butanediol (BD); R,S 1,3-Butanediol Acetoacetate Diester (KE).
FIGS. 5A-5B depict treatment timeline of weight loss study utilizing various ketogenic agents against SD caloric restriction, as well as evaluation of weight loss potency of each ketogenic agent. Treatments: Standard Diet ad-Libitum (SD-AL); Standard Diet Caloric Restriction (CR); Beta-Hydroxybutyrate (BHB); Beta-Hydroxybutyrate+Medium Chain Triglycerides (BHB+MCT); Butanediol (BD); R,S 1,3-Butanediol Acetoacetate Diester (KE). […] These reductions in bodyweight were at lower percentages of the ketogenic agent within the food. Additionally, KE animals reach target weight loss at much LOWER % of ketogenic agent integrated into the diet.
FIG. 6 depicts food efficiency during weight loss maintenance by calculating bodyweight regain proportional to calories consumed. Treatments: Standard Diet ad-Libitum (SD-AL); Standard Diet Caloric Restriction (CR); Beta-Hydroxybutyrate (BHB); Beta-Hydroxybutyrate+Medium Chain Triglycerides (BHB+MCT); Butanediol (BD); R,S 1,3-Butanediol Acetoacetate Diester (KE).
C57BL/6J animals were obtained. Prior to experimental initiation, animals were randomly assigned to one (1) of five (5) groups: Caloric Restriction with standard diet (SD), Beta-hydroxybutyrate with SD (BHB), BHB+Medium Chain Triglycerides with SD (BHB+MCT), 1,3-Butanediol with SD (BD), and R,S 1,3 Butanediol Acetoacetate Diester with SD (KE). All animals initiated weight loss by either reducing the amount of calories consumed (CR group) or adding various % of ketogenic agents to induce weight loss. There was no difference in bodyweight across groups at baseline. All animals underwent weight loss until 20% weight loss was achieved. Upon reaching 20% weight loss, animals were switched back onto ad-libitum SD.
Calories intake, bodyweight, and kcal of ketogenic agent in diet were recorded daily. In order to calculate the effectiveness of each agent to induce weight loss, weight loss as both grams and % weight loss, was compared as a ratio to the amount of kcal from each ketogenic agent compared to total kcals consumed a day.

[5] = agent in standard diet until 20% weight loss

CC(=O)CC(=O)OCCC(C)OC(=O)CC(C)=O (stereo not shown) [KE, R,S 1,3-butanediol diacetoacetate]
white adipose tissue ([1]; compared to SD or KD): induce reductions in white adipose tissue | bodyweight (weight loss and its maintenance) [1]: induced and maintained long-term weight loss | bodyweight (weight loss and its maintenance) ([1]; listed as ketone diester): lost significantly more bodyweight | bodyweight (prevention of weight gain, maintaining a lower weight) ([2]; gavage 5 g/kg once daily (5 mL/kg), ad libitum standard chow, compared to water, BHB-S, S-MCT, p<0.01): more effective than BHB-S, S-MCT, or Control at preventing weight gain and maintaining a lower weight; also recorded: significantly lower bodyweight | calorie intake (self-restriction) ([2]; gavage once daily, ad libitum access to standard rodent chow): self-restricted calories | Approximate caloric intake compared to controls following adaptation to diet (weeks 13-15) ([3]; approx. 25 g/kg/day in food): ~−7% kcal | bodyweight (prevention of weight gain, maintaining a lower weight) [3]: more effective than BHB-S or S-MCT at preventing weight gain and maintaining a lower weight | bodyweight (prevention of weight gain, maintaining a lower weight) ([3]; listed as R,S 1,3 butanediol diacetoacetate): significantly lower bodyweight | Approximate caloric intake compared to controls following adaptation to diet (weeks 13-15) ([3]; low dose, approx. 5 g/kg/day in food): ~+10% kcal | food efficiency during weight loss maintenance (bodyweight regain proportional to calories consumed, FIG. 6) [4]: more effective at inducing inefficiencies in kcal consumed; also recorded: had lingering effects on food efficiency and weight loss maintenance | food efficiency during weight loss maintenance (bodyweight regain proportional to calories consumed, FIG. 6) ([4]; listed as R,S 1,3-butanediol diacetoacetate): help contribute to maintenance of weight loss after cessation of weight loss intervention by reducing food efficiency | speed of bodyweight reduction and % of agent in the diet needed (FIG. 5A) [4, 5]: induced a quicker reduction in bodyweight; also recorded: induces more rapid weight loss | weight loss as ratio to kcal of ketogenic agent per total daily intake (FIGS. 4A-4B) [4, 5]: superior per kcal used at inducing weight loss | weight loss as ratio to kcal of ketogenic agent per total daily intake (FIGS. 4A-4B) ([4]; agent in standard diet until 20% weight loss, listed as R,S 1,3 Butanediol Acetoacetate diester): superior weight loss agent per total average daily intake | weight loss as a ratio to caloric intake/day (FIG. 5B) [4]: significantly more potent at inducing weight loss when divided by total caloric intake

beta-hydroxybutyrate salt [BHB-S, reference compound]
Approximate caloric intake compared to controls following adaptation to diet (weeks 13-15) ([3]; approx. 25 g/kg/day in food): ~−25% kcal | food efficiency during weight loss maintenance (bodyweight regain proportional to calories consumed, FIG. 6) [4]: help contribute to maintenance of weight loss after cessation of weight loss intervention by reducing food efficiency | food efficiency during weight loss maintenance (bodyweight regain proportional to calories consumed, FIG. 6) ([4]; listed as BHB): more effective at inducing inefficiencies in kcal consumed; also recorded: had lingering effects on food efficiency and weight loss maintenance; also recorded: helped maintain weight loss post cessation of agent administration | weight loss as a ratio to caloric intake/day (FIG. 5B) [4]: could be explained by caloric restriction alone
